Patent US7504226B2, “Methods relating to treatment of atherosclerosis” (Cambridge Theranostics Ltd., priority 2001, dated 2009)
Several values for one entry are separate records, joined by “and”; a condition that tells them apart may be missing. Equal entries are not always repeated. Entries after “also recorded” stand apart in the source; their conditions may differ. Where two headings read alike, the source gives them in different places. Marks after values point to notes of the source that are not given here.

How the values were obtained:
anti-Chlamydia abzymes [1] = assay type: in vivo, human; conditions: for Anti-Chlamydia abzyme activity: individual patients (last line: mean); for individuals positive for abzymes / individuals positive for abzymes (fraction) / abzyme activity of individuals reporting taking aspirin: + aspirin; for Anti-Chlamydia abzymes activity: Table 27 group summary
anti-Chlamydia abzymes [2] = assay type: biochemical, human; set-up: key to In-vitro Inhibition: + = inhibition; − = no inhibition; conditions: for In-vitro Inhibition: abzyme activity, metal chelators; for Anti-Abzyme activity: control 21.7
patients with angina = assay: Clinical condition of angina patients treated with anti-microbial agent; assay type: in vivo, human; conditions: for Clinical condition: individual patients; for tablets of nitroglycerine daily: patient 5
anti-Chlamydia IgG = assay type: in vivo, human; conditions: immuno-fluorescent assay, group summary
[3] = test system: patients with ischaemic heart disease; assay: Severity of angina pectoris by modified Rose-Blackburn Questionnaire; assay type: in vivo, human; set-up: Score by modified Rose-Blackburn Questionnaire / Rose Blackthorn Score Day 0: scale not given here; conditions: for Score by modified Rose-Blackburn Questionnaire: individual patients (last line of each group: mean)
Excerpt: The progression of the clinical condition of the patients was monitored by the use of the modified Bruce Protocol for treadmill exercise/stress ECG testing and on the Rose-Blackburn Questionnaire (Cardiovascular Survey Methods. WHO, Geneva, 1968).

[4] = human, in vivo
anti-Chlamydia abzymes [5] = assay type: biochemical, human
lesion IgG = assay type: biochemical, human
[6] = IHD patients negative for anti-Chlamydia IgG, individual patients
[7] = Chlamydia treated with 1% detergents or 10% solution of DMSO

Compound: CC(=O)Oc1ccccc1C(=O)O [Aspirin, acetylsalicylic acid]
- Anti-Chlamydia abzyme activity (anti-Chlamydia abzymes [1]; Therapy Group D, IHD, aspirin 250 mg daily, before treatment): 103 μM MDA/ml and 253 μM MDA/ml and 178 μM MDA/ml
- Anti-Chlamydia abzyme activity (anti-Chlamydia abzymes [1]; Therapy Group D, 60 days after the start of treatment): 63 μM MDA/ml and 103 μM MDA/ml and 83.2 μM MDA/ml
- Level of activity of anti-Chlamydia abzymes (anti-Chlamydia abzymes [1]; individual CHD patients, 7 days after starting to take 250 mg of aspirin daily): undetectably low level and 20 μM MDA/ml and 0 μM MDA/ml
- Level of activity of anti-Chlamydia abzymes (anti-Chlamydia abzymes [1]; individual CHD patients, before taking aspirin): 100 μM MDA/ml and 45 μM MDA/ml (2×)
- inhibition of the abzyme activity (anti-Chlamydia abzymes [1]; one CHD patient, after a week of 250 mg daily): 5 fold
- Level of activity of anti-Chlamydia abzymes (anti-Chlamydia abzymes [1]; patient F, Silent Myocardial Ischaemia, aspirin intake 250 mg daily): 10 μM MDA/ml
- Level of activity of anti-Chlamydia abzymes (anti-Chlamydia abzymes [1]; patient F, 7 days after re-starting to take 250 mg aspirin daily): 20 μM MDA/ml
- Level of activity of anti-Chlamydia abzymes (anti-Chlamydia abzymes [1]; patient F, after stopping taking aspirin for 7 days): 65 μM MDA/ml
- individuals positive for abzymes (anti-Chlamydia abzymes [1]; stable angina class I): 17%
- individuals positive for abzymes (fraction) (anti-Chlamydia abzymes [1]; stable angina class I): 1/6
- abzyme activity of individuals reporting taking aspirin (anti-Chlamydia abzymes [1]; stable angina class I, individuals (r25: mean, n = 6)): 0 (3×) and 10 and 10.0 and 5 and 45
- individuals positive for abzymes (anti-Chlamydia abzymes [1]; stable angina class II): 27%
- individuals positive for abzymes (fraction) (anti-Chlamydia abzymes [1]; stable angina class II): 4/15
- abzyme activity of individuals reporting taking aspirin (anti-Chlamydia abzymes [1]; stable angina class II, individuals (r25: mean, n = 15)): 10 (2×) and 0 (4×) and 5 (4×) and 25 and 22.5 and 3.3 and 16.7 and 9.2 and 30
- individuals positive for abzymes (anti-Chlamydia abzymes [1]; stable angina class III): 60%
- individuals positive for abzymes (fraction) (anti-Chlamydia abzymes [1]; stable angina class III): 6/10
- abzyme activity of individuals reporting taking aspirin (anti-Chlamydia abzymes [1]; stable angina class III, individuals (r25: mean, n = 10)): 0 (3×) and 5 and 35 and 15 and 30 and 105 and 25.5 and 20 and 45
- individuals positive for abzymes (anti-Chlamydia abzymes [1]; unstable angina IV): 86%
- individuals positive for abzymes (fraction) (anti-Chlamydia abzymes [1]; unstable angina IV): 6/7
- abzyme activity of individuals reporting taking aspirin (anti-Chlamydia abzymes [1]; unstable angina IV, individuals (r25: mean, n = 7)): 0 and 37 and 90 and 100 and 86.7 and 180 and 130 and 70
- Result (inhibition of abzymes) (anti-Chlamydia abzymes [2]; 10 μM of each agent): Positive
- In-vitro Inhibition (anti-Chlamydia abzymes [2]): +

Compound: CC[C@H]1OC(=O)[C@H](C)[C@@H](O[C@H]2C[C@@](C)(OC)[C@@H](O)[C@H](C)O2)[C@H](C)[C@@H](O[C@@H]2O[C@H](C)C[C@H](N(C)C)[C@H]2O)[C@](C)(O)C[C@@H](C)CN(C)[C@H](C)[C@@H](O)[C@]1(C)O [Azithromycin]
- Clinical condition (patients with angina; after 15 days of treatment): angina class II;; also recorded: Stable condition;
- Clinical condition (patients with angina; before treatment): angina class III;; also recorded: Unstable angina;
- tablets of nitroglycerine daily (patients with angina; after 15 days of treatment): 5 tablets of nitroglycerine
- tablets of nitroglycerine daily (patients with angina; before treatment): 10 tablets of
- Anti-Chlamydia IgG (anti-Chlamydia IgG; 60 days after treatment): 0 (titers)^−1
- Anti-Chlamydia IgG (anti-Chlamydia IgG; before treatment): 43.6 (titers)^−1
- Rose Blackthorn Score Day 0 [3, 6]: 21 and 22 and 12 and 19
- Clinical Status modified Rose G., Blackburn H. Questionnaire ([3]; group summary, before treatment): 19.4 ± 1.79
- Score by modified Rose-Blackburn Questionnaire ([3]; 60 days after start of the treatment): 19 and 10 and 13 and 16 and 18 and 15 (2×) and 8 and 11 and 17 (2×)
- Score by modified Rose-Blackburn Questionnaire ([3]; before treatment): 22 and 12 and 19 and 23 and 21 and 25 (3×) and 16 and 10 and 15 and 19.4 ± 1.79
- Abzyme activity Day 0 (anti-Chlamydia abzymes [1]; [6]): 15 and 90 and 80 and 40
- Abzyme activity Day 60 (anti-Chlamydia abzymes [1]; [6]): 6.7 (2×) and 3.3 and 0
- Anti-Chlamydia abzyme activity (anti-Chlamydia abzymes [1]; Table 15, 15 days after the start of the treatment): 60 μM MDA/ml and 0 μM MDA/ml (3×) and 8.3 μM MDA/ml and 6.7 μM MDA/ml (3×) and 33 μM MDA/ml and 75 μM MDA/ml and 19.6 μM MDA/ml
- Anti-Chlamydia abzyme activity (anti-Chlamydia abzymes [1]; Table 15, 30 days after the start of the treatment): 37 μM MDA/ml and 0 μM MDA/ml (3×) and 28 μM MDA/ml and 3.3 μM MDA/ml (2×) and 10 μM MDA/ml and 78 μM MDA/ml and 17.7 μM MDA/ml
- Anti-Chlamydia abzyme activity (anti-Chlamydia abzymes [1]; Table 15, stable angina, 500 mg once per day, before treatment): 40 μM MDA/ml (2×) and 50 μM MDA/ml and 15 μM MDA/ml and 10 μM MDA/ml and 35 μM MDA/ml and 85 μM MDA/ml and 30 μM MDA/ml (2×) and 45.9 μM MDA/ml and 90 μM MDA/ml and 80 μM MDA/ml
- Anti-Chlamydia abzymes activity (anti-Chlamydia abzymes [1]; 60 days after treatment): 1.6 ± 0.89 ^ μM/MDA/ml
- Anti-Chlamydia abzymes activity (anti-Chlamydia abzymes [1]; before treatment): 47.5 ± 8.96 μM/MDA/ml
- Anti-Chlamydia abzyme activity (anti-Chlamydia abzymes [1]; Therapy Group A, IHD, 500 mg daily, before treatment): 90 μM MDA/ml and 80 μM MDA/ml and 40 μM MDA/ml (2×) and 50 μM MDA/ml and 15 μM MDA/ml and 28 μM MDA/ml and 35 μM MDA/ml and 85 μM MDA/ml and 30 μM MDA/ml (2×) and 47.5 μM MDA/ml
- Anti-Chlamydia abzyme activity (anti-Chlamydia abzymes [1]; Therapy Group A, 15 days after the start of treatment): 6.7 μM MDA/ml (3×) and 0 μM MDA/ml (3×) and 60* μM MDA/ml and 8.3 μM MDA/ml and 33 μM MDA/ml and 75* μM MDA/ml and 52* μM MDA/ml and 22.5 μM MDA/ml
- Anti-Chlamydia abzyme activity (anti-Chlamydia abzymes [1]; Therapy Group A, 30 days after the start of treatment): 78** μM MDA/ml and 0 μM MDA/ml (3×) and 37* μM MDA/ml and 28** μM MDA/ml and 3.3 μM MDA/ml (2×) and 10 μM MDA/ml (2×) and 78* μM MDA/ml and 22.5 μM MDA/ml
- Anti-Chlamydia abzyme activity (anti-Chlamydia abzymes [1]; Therapy Group A, 45 days after the start of treatment): 17 μM MDA/ml and 0 μM MDA/ml (5×) and 20* μM MDA/ml and 43* μM MDA/ml and 3.3 μM MDA/ml (2×) and 5.0 μM MDA/ml and 7.4 μM MDA/ml
- Anti-Chlamydia abzyme activity (anti-Chlamydia abzymes [1]; Therapy Group A, 60 days after the start of treatment): 3.3 μM MDA/ml and 6.7 μM MDA/ml (2×) and 0 μM MDA/ml (7×) and 0.5 μM MDA/ml and 1.6 μM MDA/ml
- adverse reactions [4]: No adverse reactions

Compound: C[S+](C)[O-] [DMSO]
- development of lipid oxidation reaction (anti-Chlamydia abzymes [5]; [7]): completely abrogated
- Level of MDA production by 0.82 μg of lesion IgG (lesion IgG; LDL 480 μg of protein, +1% agent, control 0.49 ± 0.023): 0 µM

Compound: O=C(O)CN(CCN(CC(=O)O)CC(=O)O)CCN(CC(=O)O)CC(=O)O [DTPA]
- Result (inhibition of abzymes) (anti-Chlamydia abzymes [2]; 10 μM of each agent): Negative
- In-vitro Inhibition (anti-Chlamydia abzymes [2]): −

Compound: O=[N+]([O-])OCC(CO[N+](=O)[O-])O[N+](=O)[O-] [Glyceryl Trinitrate]
- Anti-Abzyme activity (anti-Chlamydia abzymes [2]; 4.4 μM): 0 μM MDA/ml
- Anti-Abzyme activity (anti-Chlamydia abzymes [2]; 22 μM): 0 μM MDA/ml
- Anti-Abzyme activity (anti-Chlamydia abzymes [2]; 44 μM): 0 μM MDA/ml
- Anti-Abzyme activity (anti-Chlamydia abzymes [2]; 220 μM): 0 μM MDA/ml

Compound: O=[N+]([O-])O[C@H]1CO[C@H]2[C@@H]1OC[C@H]2O[N+](=O)[O-] [Isosorbide Dinitrate]
- Anti-Abzyme activity (anti-Chlamydia abzymes [2]; 42 μM): 0 μM MDA/ml
- Anti-Abzyme activity (anti-Chlamydia abzymes [2]; 211 μM): 0 μM MDA/ml

Compound: [N-]=[N+]=[N-].[Na+] [NaN3]
- Result (inhibition of abzymes) (anti-Chlamydia abzymes [2]): Positive

Compound: CC(C)(S)[C@@H](N)C(=O)O [Penicillamine]
- Result (inhibition of abzymes) (anti-Chlamydia abzymes [2]; 10 μM of each agent): Positive
- In-vitro Inhibition (anti-Chlamydia abzymes [2]): +

Compound: O=C(O)c1ccccn1 [Picolinic acid]
- Result (inhibition of abzymes) (anti-Chlamydia abzymes [2]; 10 μM of each agent): Positive
- In-vitro Inhibition (anti-Chlamydia abzymes [2]): +

Compound: CCCCCCCCCCCCOS(=O)(=O)[O-].[Na+] [SDS]
- lipid oxidising reaction in the test system (anti-Chlamydia abzymes [5]): no lipid oxidising reaction

Compound: N.N.O=S(=O)(O)O [ammonium sulphate]
- lipid oxidising reaction in the test system (anti-Chlamydia abzymes [5]): no lipid oxidising reaction

Compound: O=C(O)c1ccccc1 [benzoic acid]
- Level of MDA production by 0.82 μg of lesion IgG (lesion IgG): 0 µM

Compound: C=O [formalin]
- lipid oxidising reaction in the test system (anti-Chlamydia abzymes [5]): no lipid oxidising reaction

Compound: O=C[O-].[Na+] [sodium formate]
- Level of MDA production by 0.82 μg of lesion IgG (lesion IgG; LDL 480 μg of protein, +0.1 M agent, control 0.49 ± 0.023): 0 µM

Compound: octylphenoxypoly(ethyleneoxy)ethanol [IGEPAL CA-630]
- development of lipid oxidation reaction (anti-Chlamydia abzymes [5]; [7]): completely abrogated
- oxidation of the lipids in the bacteria by the extracted abzymes (anti-Chlamydia abzymes [5]; Chlamydia treated with non-ionic detergent): abolished

Compound: polyoxyethylene Octyl phenyl ether [TRITON X-100]
- development of lipid oxidation reaction (anti-Chlamydia abzymes [5]): completely abrogated
- oxidation of the lipids in the bacteria by the extracted abzymes (anti-Chlamydia abzymes [5]): abolished
